Source: patent publication US11534506B2, “Methods for cell labeling and medical imaging” (priority 2015, dated 2022)
Entries after “also recorded” stand apart in the source; their conditions may differ. Read-outs that look alike come from different tables or passages of the source.

How the values were obtained:
lymphocytes = conditions: cited from earlier work
[1] = tested on: hematopoietic progenitor cells (HPCs); conditions: in 24-96 hours; cited from earlier work
[2] = tested on: Leukocytes, Lymphocytes, HPCs; conditions: in 30 minutes; cited from earlier work
mMCs, hMSCs and mDCs [3] = test: Labeling of cells with ^89Zr(HPO4)2 and ^89Zr-DBN, labeling efficiency over all cell types; type: cell-based, mouse, human
Description: The adherent cells were trypsinized and washed once with PBS and twice with HEPES buffered GIBCO Hanks Balanced Salt solution buffered (ThermoFisher, Atlanta, Ga., USA) (H-HBSS), pH 7.5. The cell labeling reaction was performed with ˜6×10^6 cells in 500 μl H-HBSS at pH 7.5. […] After incubation, the cells were washed 4 times with appropriate volume of complete medium. The final labeling efficiency was calculated from the radioactivity bound to cells after all the washes.

scAAV1-Cre and AAV2-GFP = test: Labeling of adeno-associated viruses with ^89Zr-DBN; conditions: after 30 minutes of labeling
Description: Post-labeling, the ^89Zr-DBN-AAVs were purified from free label and reaction mixture using size exclusion PD-10 desalting columns. The eluted virus in fractions were quantified using protein assay and radioactivity elution pattern was recorded.

mMCs, hMSCs and mDCs [4] = test: Efflux of ^89Zr-DBN from labeled cells; conditions: over 7 days post-labeling, medium replaced daily
Description: The medium was replaced with fresh medium daily for 7 days and radioactivity in the replaced medium was counted. For mDCs with mix of adherent and suspension cells, the plate was centrifuged at 1000 rpm for 10 minutes before replacing the medium to avoid loss of unattached ^89Zr-labeled cells.

[5] = tested on: human mesenchymal stem cells (hMSCs); test: Labeling of cells with ^89Zr-DBN (cell-bound radioactivity); type: cell-based; conditions: 6×10^6 cells incubated 30 minutes with ~6 MBq
Description: (§1) B16-F10 Mouse melanoma cells (mMCs) from ATCC, Manassas, Va., USA, human mesenchymal stem cells (hMSCs) from patients and JAWSII mouse dendritic cells (mDCs) from ATCC, Manassas, Va., USA, were used for evaluating the ^89Zr-DBN based labeling method. The mMCs and hMSCs were cultured in complete DMEM (DMEM+10% FBS) and mDCs were cultured in complete alphaMEM (alpha MEM+4 mM L-glutamine+1 mM sodium pyruvate+5 ng/mL murine GM-CSF+20% FBS). The cultures were maintained in a humidified cell culture chamber (21% O2, 74% N2, 5% CO2) at 37° C.
(§2) The adherent cells were trypsinized and washed once with PBS and twice with HEPES buffered GIBCO Hanks Balanced Salt solution buffered (ThermoFisher, Atlanta, Ga., USA) (H-HBSS), pH 7.5. The cell labeling reaction was performed with ˜6×10^6 cells in 500 μl H-HBSS at pH 7.5. […]. After incubation, the cells were washed 4 times with appropriate volume of complete medium. The final labeling efficiency was calculated from the radioactivity bound to cells after all the washes.

[6] = tested on: JAWSII mouse dendritic cells (mDCs); test: as above; type: cell-based; conditions: 6×10^6 cells incubated 30 minutes with ~6 MBq
Description: as §1, §2

[7] = tested on: B16-F10 Mouse melanoma cells (mMCs); test: as above; type: cell-based; conditions: 6×10^6 cells incubated 30 minutes with ~6 MBq
Description: as §1, §2

mMCs, hMSCs and mDCs [8] = test: Incorporation of ^89Zr-DBN in protein fraction (subcellular protein fractionation); type: cell-based, mouse, human; conditions: days 1, 4 and 7 after labeling; all cell types studied
Description: To understand the sub-cellular localization of the label, incorporation of ^89Zr-DBN into different protein fractions in mMCs, hMSCs and mDCs was evaluated using a subcellular protein fractionation kit (Piercenet Thermo Scientific) at day 1, 4 and 7 post-labeling. The cytosolic proteins, hydrophobic membrane proteins, nuclear proteins and cytoskeletal proteins were isolated and each protein fraction was counted for radioactivity using a 2480 Wizard^2 automatic gamma counter (Perkin Elmer, Waltham, Mass., USA).

mMCs, hMSCs and mDCs [9] = test: ApoTox-Glo viability/cytotoxicity and caspase 3/7 apoptosis assay; type: cell-based, mouse, human; conditions: 2 μM for 16 hours
Description: The effect of radiolabeling on cellular viability was also assessed using the ApoTox-Glo viability, cytotoxicity and caspase 3/7 apoptosis assay (Promega Corporation, Madison, Wis., USA). Unlabeled cells served as control. A known number of unlabeled and ^89Zr-labeled cells (˜10^4/well) were plated in a 96-well culture plate. The culture medium was replaced daily and maintained at 37° C. in a CO2 incubator. At day 7, cell viability, cytotoxicity and apoptosis was quantified in triplicate using the ApoTox-Glo assay. As positive controls, cells were incubated with 30 μg/mL digitonin for 30 minutes for the viability and cytotoxicity assays, while 2 μM staurosporine was added for 16 hours for the caspase 3/7 dependent apoptosis assay.

natural killer cells = conditions: cited from earlier work
5T33 myeloma cells = conditions: cited from earlier work
[10] = tested on: macrophages, breast cancer cells, and myeloma cells; conditions: at 24 hours; cited from earlier work
[11] = tested on: myeloma cells and natural killer cells; conditions: cited from earlier work
C6 glioma cells = conditions: cited from earlier work

Compound: [In+3].[O-]c1cccc2cccnc12.[O-]c1cccc2cccnc12.[O-]c1cccc2cccnc12 [^111In-oxine]
- extent of efflux (as high as) (lymphocytes; in 24-96 hours): 70-80%
- effluxed radioactivity (lymphocytes; in 24 hours): (~70% effluxed in 24 hours)
- extent of efflux (as high as) [1]: 70-80%
- cell labeling yield [2]: ~80% cell labeling yield in 30

Compound: ^89Zr-labeled p-isothiocyanato-benzyl-desferrioxamine [^89Zr-DBN]
- Radioactivity concentrations of labeled cells achieved without a negative effect on cellular viability (mMCs, hMSCs and mDCs [3]): up to 0.5 MBq/1×10^6 cells
- cell labeling efficiency (mMCs, hMSCs and mDCs [3]; 30 minutes labeling at 37° C., ~6×10^6 cells, ~6 MBq, cell-bound radioactivity after washes, depending on cell type): 30-50%
- viral labeling yield (radioactivity concentration) (scAAV1-Cre and AAV2-GFP): ~20 mCi/10^14 viral particles
- efflux of ^89Zr-radioactivity from labeled cells (mMCs, hMSCs and mDCs [4]): negligible efflux; also recorded: no efflux of radiolabel was observed
- Radioactivity concentration of labeled cells [5]: 0.47±0.10 MBq/10^6 cells
- Radioactivity concentration of labeled cells [6]: 0.39±0.20 MBq/10^6 cells
- Radioactivity concentration of labeled cells [7]: 0.50±0.10 MBq/10^6 cells
- ^89Zr-radioactivity incorporated in hydrophobic membrane protein fraction (mMCs, hMSCs and mDCs [8]): ~99%

Compound: CN[C@@H]1C[C@H]2O[C@@](C)([C@@H]1OC)n1c3ccccc3c3c4c(c5c6ccccc6n2c5c31)C(=O)NC4 [staurosporine]
- apoptosis (caspase 3/7), positive control (mMCs, hMSCs and mDCs [9]): apoptosis was increased

Compound: c1cnc2c([O][89Zr]([O]c3cccc4cccnc34)([O]c3cccc4cccnc34)[O]c3cccc4cccnc34)cccc2c1 [^89Zr-oxine]
- viability of radiolabeled cells (natural killer cells; after 6 days): 20-30%
- viability of radiolabeled cells (natural killer cells; over the first 24 hours): 60-100%
- viability of labeled cells (5T33 myeloma cells; in first 24 hours): 76.3±3.2%
- viability of labeled cells, initial (5T33 myeloma cells; starting value before the decline): 93%
- efflux [10]: 10-29%
- cell labeling yield ([11]; in 30 minutes): ~32% cell labeling yield in 30
- cell viability after labeling ([11]; possibly due to oxine exposure): Loss of cell viability possibly

Compound: CNC(=S)NN=CC(C)=NNC(=S)NC.[64Cu] [^64Cu-PTSM, ^64Cu-pyruvaldehyde-bis(N4-methylthiosemicarbazone)]
- extent of efflux (as high as) (C6 glioma cells; C6 glioma cells, in 24-96 hours): 70-80%
- cell labeling yield (C6 glioma cells; in 5 hours): 70-85% cell labeling yield in
- effluxed radioactivity (C6 glioma cells; in 24 hours): cells (~80% effluxed in 24
